# Measured values: patent US20250281509A1, “SEQUENTIAL HORMONE THERAPY TO IMPROVE SURVIVAL AND ENHANCE RESPONSE TO IMMUNE THERAPY IN MEN WITH PROSTATE CANCER” (The Johns Hopkins University, priority 2021, published 2025)
# Values joined by “and” are separate entries in the source; they are usually repeats but may differ in a detail not shown here. Identical values can stand only once. Like-named read-outs stand apart in the source and are kept apart here.
# Tests used:
# [1] = system: STING; test: STING dimerization assay (native western blot); type: cell-based, human; conditions: LNCaP vs LAPC4 cells
# Experimental: (§1) Cell lysates were prepared either in 1× denaturing lysis buffer (Cell Signaling #9803) or non-denaturing lysis buffer (50 mM HEPES pH 7.4, 150 mM NaCl, 5 mM EDTA, 10% glycerol, 1% Nonidet P-40, and supplemented with phosphatase and protease inhibitors). For denaturing gels, lysates were mixed with Laemmli buffer containing β-mercaptoethanol, boiled for 5 mins and stored at −80° C. until use. Native lysates were mixed with native loading buffer (BioRad), and semi-native lysates were mixed with Laemmli buffer without beta-mercaptoethanol and stored at −80° C. without boiling. Native gels were resolved as described previously, Robitaille et al., 2016; denaturing and semi-native gels were resolved on 4-15% precast polyacrylamide gels (BioRad) followed by transfer to PVDF membrane. Membranes were blocked in 5% nonfat milk in wash buffer (Tris-buffered saline+0.1% Tween-20). After blocking, immunoblotting was performed with primary antibodies overnight at 4° C., followed by incubation with HRP-conjugated secondary antibodies for 1 h at room temperature. Blots were analyzed using the chemiluminescence method. Blots were developed using ECL Western blot detection reagent (GE Healthcare) for highly expressed proteins and Super Signal West Femto (Thermo Fisher) reagent for low expression proteins. Each experiment was repeated at least two to three times.
# [2] = system: LNCaP cells; conditions: androgen-deprived LNCaP cells, high-dose DHT
# [3] = system: LAPC4 cells; conditions: androgen-deprived LAPC4 cells, high levels of DHT
# [4] = system: NIK, p52, RELB; test: Immunoblotting for non-canonical NF-kappaB pathway; type: cell-based, human
# Experimental: For denaturing gels, lysates were mixed with Laemmli buffer containing β-mercaptoethanol, boiled for 5 mins and stored at −80° C. until use. Native lysates were mixed with native loading buffer (BioRad), and semi-native lysates were mixed with Laemmli buffer without beta-mercaptoethanol and stored at −80° C. without boiling. […] Membranes were blocked in 5% nonfat milk in wash buffer (Tris-buffered saline+0.1% Tween-20). After blocking, immunoblotting was performed with primary antibodies overnight at 4° C., followed by incubation with HRP-conjugated secondary antibodies for 1 h at room temperature. Blots were analyzed using the chemiluminescence method. Blots were developed using ECL Western blot detection reagent (GE Healthcare) for highly expressed proteins and Super Signal West Femto (Thermo Fisher) reagent for low expression proteins. Each experiment was repeated at least two to three times.
# [5] = system: ferritin; test: Ferritin level by western blot; type: cell-based, human; conditions: LNCaP cells, supraphysiological levels
# Experimental: as §1
# [6] = system: CXCL10; test: CXCL10 transcript and protein; type: cell-based, human; conditions: LNCaP vs LAPC4 cells
# Experimental: Total RNA was extracted from cells using Trizol reagent (Thermo Fisher) as per manufacturer's instructions. cDNA was synthesized from RNA by reverse transcription using SuperScript IV reverse (Thermo Fisher). Quantitative PCR was performed on samples mixed with SYBR master mix (BioRad) and gene-specific primers using a real-time thermocycler (BioRad). Data analysis was performed using the ΔΔCt method, and fold change (2^^−ΔΔ^Ct) was calculated after double normalization with the housekeeper gene and respective untreated control. Each PCR reaction was run in triplicates.
# Cell lysates were prepared either in 1× denaturing lysis buffer (Cell Signaling #9803) or non-denaturing lysis buffer (50 mM HEPES pH 7.4, 150 mM NaCl, 5 mM EDTA, 10% glycerol, 1% Nonidet P-40, and supplemented with phosphatase and protease inhibitors). For denaturing gels, lysates were mixed with Laemmli buffer containing β-mercaptoethanol, boiled for 5 mins and stored at −80° C. until use. […] Blots were analyzed using the chemiluminescence method. […]
# The concentration of 17 chemokines, cytokines, and growth factors in culture supernatants of control or R1881 treated LNCaP cells was determined using the Bioplex Pro Human Cytokine 17-plex assay system (Bio-Rad) according to manufacturer's protocol. […] Data was collected on the Bio-Rad BioPlex 200 instrument and analyzed using the Bio-Plex Manager (Bio-Rad Laboratory).
# [7] = system: autophagy; test: Autophagy induction in PCa cell lines; type: cell-based, human
# Experimental: as §1
# Cells were plated on 60-mm dishes to obtain 80% confluence on the next day. Cells were transfected with tandem mRFP-GFP fluorescent-tagged LC3 (ptfLC3) (Addgene #21074). 24 h post-transfection, cells were trypsinized and plated on sterile glass-bottom dishes at a 40-50% confluency and treated with androgens. Autophagosomes are labelled as green and red dual positive punctas and autolysosomes appear as red puncta as the green puncta is pH sensitive and quenched by the acidic lysosomal pH. Cells were then imaged using a live cell Zeiss LSM780-FCS Single-point, laser scanning confocal microscope. Images were processed using the ImageJ software. Cells with predominantly yellow RFP/GFP (autophagosome) or red RFP (autolysosome) punctae were counted and analyzed from at least twenty fields. Each experiment had images from at least five random fields and repeated three times.
# [8] = system: CRPC; test: Post hoc analysis of PSA response to subsequent hormonal therapies post-BAT (pilot study); type: in vivo, human
# Experimental: As part of the aforementioned pilot study, a post hoc exploratory analysis on the effect of BAT on subsequent hormonal therapies was performed. […] All of the patients had received at least one anti-androgen prior to starting the study, Table 2. PSA response to secondary hormonal therapy after return to castrate T-levels post-BAT.
# [9] = system: CRPC; conditions: cited from earlier work
# [10] = system: CRPC; test: RESTORE Phase II study (NCT02090114); type: in vivo, human; conditions: re-challenge with the agent patients progressed on before BAT
# Text: The RESTORE study (NCT02090114) was an NIH sponsored Phase II study designed to assess the safety and efficacy of BAT in men (n=30 per cohort) with CRPC progressing on enzalutamide (Cohort A) or abiraterone (Cohort B), FIG. 6A. Shah et al., 2004. The primary endpoint of the first part of the study was to assess PSA response to BAT. Secondary endpoints included objective response, safety, and quality of life. The second part of the study was to determine in BAT could re-sensitize patients to repeat exposure to second line therapy that patients were progressing on prior to receiving BAT. Thus, patients progressing on enzalutamide were re-exposed to enzalutamide after BAT and similarly for abiraterone. Both arms of this study met the primary endpoint. PSA50 Response to BAT was 30% in patient's post-enzalutamide and 18% post-abiraterone, FIG. 6B. Shah et al., 2004. […] Overall duration of response to BAT and duration of response to re-exposure was longer in the post-enzalutamide vs. post-abiraterone cohort. The PSA50 response to re-exposure to enzalutamide was 71% vs. only 21% for patients re-exposed to abiraterone, FIG. 6B. Shah et al., 2004. A third cohort was later added (Cohort C) for men progressing on ADT alone. Overall, 90 men were treated on this study over a 4-year period (2014-2018).
# [11] = system: metastatic castration-resistant prostate cancer; conditions: cited from earlier work
# [12] = system: CRPC progressing on abiraterone; test: TRANSFORMER randomized Phase II study (NCT02286921); type: in vivo, human; conditions: for PSA50 response: patients crossing from BAT to enzalutamide
# Experimental: The TRANSFORMER study (NCT02286921) was a DOD-sponsored randomized Phase II study designed to compare the efficacy of BAT vs. enzalutamide in asymptomatic men with CRPC progressing on abiraterone, FIG. 7A. The study was conducted at 17 academic centers across the U.S. The study was coordinated by the Prostate Cancer Disease Group clinical research team at Johns Hopkins, who performed regulatory oversight, study/site monitoring, and data analyses. From 2015-2018, 195 patients underwent 1:1 randomization to either standard dose enzalutamide (n=101) or BAT (n=94) at 400 mg IM every 28 days. The primary endpoint was clinical/radiographic PFS. At time of progression, patients were given the option to crossover to the alternate therapy. The trial was designed to show a 50% improvement in the primary endpoint for BAT vs. enzalutamide. […] Objective response was 24.4% for BAT and 4.2% for enzalutamide (p=0.067). Best PSA50 was 26.4% for BAT and 25.5% for enzalutamide (p=0.697).
# At time of progression, 46 (49%) of patients on the […] crossed over to receive BAT and 34 (33.7%) crossed over from BAT to receive enzalutamide and were available for analysis.
# [13] = system: CRPC; conditions: enzalutamide post-abiraterone, pre-chemotherapy setting; cited from earlier work
# [14] = system: CRPC; conditions: post-docetaxel setting; cited from earlier work
# [15] = system: LNCaP cells; test: Annexin-V positivity; type: cell-based, human
# [16] = system: cytoplasmic DNA; test: Confocal microscopy of cytoplasmic DNA; type: cell-based, human; conditions: combination of hydroxychloroquine and R1881
# Experimental: Cells were grown on sterile coverslips in low density and were treated with R1881 (T) or vehicle control (C). After treatment, media was removed, and cells were fixed and permeabilized using chilled methanol for 10 min in deep-freezer followed by 10 min fixation in 10% natural buffered formalin at room temperature. Post-fixation, cells were blocked overnight in sterile-filtered 5% BSA in PBS at 4° C. Cells were incubated with a primary antibody, followed by a suitable fluorochrome tagged secondary antibody at 4° C. overnight. Both primary and secondary antibodies were diluted with 5% BSA in PBS. Cells were postfixed with 10% NBF for 2-3 min before mounting on a clean glass slide using Vectashield antifade mounting media (Vector Laboratories). Image acquisition was performed on the LSM 700 laser confocal microscope (Zeiss). Experiment was repeated at least three times and images from at least five random fields from each experiment were used for analysis. Images were analyzed using the image processing package Fiji.
# [17] = system: PARP cleavage; test: PARP cleavage in prostate cancer cell lines; type: cell-based, human
# Experimental: as §1
# [18] = system: labile iron pool (Fe2+); test: Measurement of the labile iron pool; type: cell-based, human; conditions: LNCaP cells, vs vehicle
# Experimental: An iron assay kit (Sigma) was used to measure the labile iron pool in control and R1881 treated cells. LNCaP and LAPC4 cells were culture in a 100-mm tissue culture dish and were treated for […] before lysis in the buffer provided with the kit by snap freezing and thawing method. The lysate was cleared by centrifuging at 13000×g, and iron was measured by iron detection reagents supplied in the kit. Iron levels were calculated and normalized by the total protein present in the cell lysate. Levels of Fe^2+ were analyzed in SupraT treated cells and were normalized to vehicle control cells.
# [19] = system: lipid peroxides; test: Lipid peroxide sensor C11-BODIPY; type: cell-based, human; conditions: LNCaP cells, vs vehicle
# [20] = system: AR-V; test: AR-V expression in VCaP cells exposed to R1881 (FIG. 1B); type: cell-based, human; conditions: 48-hr exposure
# Text: FIG. 1A and FIG. 1B show (FIG. 1A) Effect of synthetic androgen R1881 or bicalutamide on growth of ADT-resistant LNCaP and VCAP; (FIG. 1B) expression of full-length AR (AR-FL), AR-variants (AR-Vs) using antibody to AR N-terminal domain and AR-V& using AR-V7 specific antibody in the absence or presence of R1881;
# Thelen et al., 2013. These AR-V expressing cells are profoundly growth inhibited by high dose levels of androgens, FIG. 1A.
# [21] = Enzalutamide Phase III (PREVAIL)
# [22] = initial randomized arms, post-abiraterone
compound,measurement,setting,value
"C[C@]12CCC(=O)C[C@@H]1CC[C@@H]1[C@@H]2CC[C@]2(C)[C@@H](O)CC[C@@H]12 [DHT, dihydrotestosterone]",STING and MAVS activation,[1],"activated STING and MAVS preferentially in LNCaP cells, however, the activation was not as robust as R1881"
same,double strand break formation (γH2A.x foci),[2],numerous γH2A.x foci
same,double strand breaks (γH2A.x foci),[3],numerous double strand breaks throughout the nucleus
same,RelB and NIK stabilization,[4],led to stabilization of RelB and NIK
same,ferritin levels,[5],decreased ferritin levels
same,CXCL10 induction,[6],able to induce CXCL10 (less robustly than R1881) preferentially in LNCaP cells
same,autophagy,[7]; LAPC4 cells,but not in LAPC4 cells
same,autophagy,[7]; LNCaP cells,robustly increased autophagy
CNC(=O)c1ccc(N2C(=S)N(c3ccc(C#N)c(C(F)(F)F)c3)C(=O)C2(C)C)cc1F [enzalutamide],patients with a PSA decline on second line therapy,[8]; after return to castrate testosterone levels post-BAT,4/4
same,Maximum PSA decline upon secondary HT initiation (%),"[8]; per subject, secondary HT received post-study after return to castrate T-levels post-BAT",−30.4% and −99.5% and −78.3% and −53.2%
same,patients with >50% PSA decline on second line therapy,[8]; post-BAT,3/4
same,PSA decline upon re-challenge,[8]; subjects who had previously progressed on the same agent,53.2%
same,>50% decline PSA (%),[9]; [21],78%
same,Objective Response (%),[9]; [21],59%
same,PSA PFS,[9]; [21],11.2
same,TTP (m),[9]; [21],20 m
same,"hazard ratio, overall survival","[9]; enzalutamide vs placebo, 95% CI 0.60 to 0.84",0.71
same,median overall survival,"[9]; pre-chemotherapy setting, placebo 30.2 months",32.4 months
same,PSA50 response to re-exposure post-BAT,[10],71%
same,"PFS (median), clinical/radiographic",[11]; AR-V7-negative patients,6.1 months
same,PSA response rate,[11]; AR-V7-negative patients,52.6%
same,PSA-PFS (median),[11]; AR-V7-negative patients,5.9 months
same,"PFS (median), clinical/radiographic",[11]; AR-V7-positive patients,2.1 months
same,PSA response rate,[11]; AR-V7-positive patients,0%
same,PSA-PFS (median),[11]; AR-V7-positive patients,1.4 months
same,Objective response,[12]; enzalutamide post-BAT patients,28.6%
same,Time to PSA progression,[12]; immediately post-abiraterone,3.8 months
same,"increase in time to PSA progression, post-BAT vs post-abiraterone",[12]; in vivo,~3 fold
same,overall survival,[12]; in vivo,28 months
same,Best PSA50,[12]; [22],25.5%
same,Objective response,[12]; [22],4.2%
same,Best PSA50,"[12]; initial randomized arms, post-abiraterone, listed as Enza",25%
same,clinical/radiographic PFS,"[12]; initial randomized arms, p=0.2267",5.72 m
same,PSA50 response,[12],72.7%
same,PSA50 response,[12]; listed as Enza,78%
same,Time to PSA progression,[12]; post-BAT,10.9 months
same,Time to PSA progression,"[12]; post-BAT, listed as Enza",11 months
same,median rPFS,[13],≤ 6 months
same,improvement in survival,[14],approximately 5 months
"C[C@]1(O)CC[C@H]2[C@@H]3CCC4=CC(=O)CCC4=C3C=C[C@@]21C [R1881, 17α-methyl-19-nor-δ9,11-testosterone]",Annexin-V positivity,[15],no significant increase in Annexin-V
same,cytoplasmic DNA,[16]; LAPC4 cells,did not show any cytoplasmic DNA
same,cytoplasmic DNA,[16]; LNCaP cells,marked localization of cytoplasmic DNA
same,cytoplasmic DNA,[16]; VCaP cells,fewer cytoplasmic DNA puncta
same,PARP cleavage,[17],none of the prostate cancer cell lines treated with synthetic androgen R1881 had any substantial enhancement of PARP cleavage
same,labile iron pool,[18],increased
same,lipid peroxides,[19],increased
same,AR-V expression,[20],Complete loss of AR-V expression
same,basal autophagy,[7]; LAPC4 and 22Rv1 cells,remained largely unaffected
same,autophagy,[7]; LNCaP and VCaP cells,notably induces autophagy
